Laboratory results taken from ChEMBL document CHEMBL3259703, “Synthesis and preliminary biological evaluation of 1,2,3-triazole-Jaspine B hybrids as potential cytotoxic agents” (Eur J Med Chem, 2014).

Key:
Format in all cases: functional, cell-based
[1] = Antiproliferative activity against human EC9706 cells after 48 hrs by MTT assay; details: EC9706, 48 h
MGC-803 = assay: Antiproliferative activity against human MGC803 cells after 48 hrs by MTT assay; details: MGC-803, 48 h
MCF7 = assay: Antiproliferative activity against human MCF7 cells after 48 hrs by MTT assay; details: MCF7, 48 h

Compound	IC50 [1] [µM]	IC50 (MGC-803) [µM]	IC50 (MCF7) [µM]
CCCCCCCn1cc(COC[C@@H]2OC[C@H](N)[C@@H]2O)nn1	> 128	> 128	> 128
CCCCCCCCn1cc(COC[C@@H]2OC[C@H](N)[C@@H]2O)nn1	44.3	70.4	28.1
CCCCCCCCCn1cc(COC[C@@H]2OC[C@H](N)[C@@H]2O)nn1	20.1	13.8	12.4
CCCCCCCCCCn1cc(COC[C@@H]2OC[C@H](N)[C@@H]2O)nn1	15.6	8.78	9.64
CCCCCCCCCCCCn1cc(COC[C@@H]2OC[C@H](N)[C@@H]2O)nn1	16	21.4	2.21
CCCCCCCCCCCCCCn1cc(COC[C@@H]2OC[C@H](N)[C@@H]2O)nn1	7.83	8.21	1.85
CCCCCCCCCCCCCCCCn1cc(COC[C@@H]2OC[C@H](N)[C@@H]2O)nn1	20	27.9	3.3
CCCCCCCCCCCCCCCCCCn1cc(COC[C@@H]2OC[C@H](N)[C@@H]2O)nn1	17.8	15.4	7.58
CCCCCCCn1cc(COC[C@@H]2OC[C@H](N)[C@H]2O)nn1	> 128	> 128	> 128
